28 compounds from patent US20180116220A1, “NOVEL TRIAZOLE DERIVATIVES” (BAYER CROPSCIENCE AKTIENGESELLSCHAFT, priority 2015, published 2018) can be followed below.

This series in a line: LogP by HPLC on reversed phase columns (EEC directive 79/831 Annex V.A8). Type of series: physicochemical. As to the method:
[table] If more than one LogP value is available within the same method, all the values are given and separated by “+”. […] Lambda-max-values were determined using UV-spectra from 200 nm to 400 nm and the peak values of the chromatographic signals. Measurement of LogP values was performed as outlined above.

[1] abbreviates: [a] LC-UV, acidic range, 0.1% formic acid in water and acetonitrile as eluent.
Where [2] appears, read: [b] LC-UV, neutral range, 0.001 molar ammonium acetate solution in water and acetonitrile as eluent.

Marks after values point to notes of the source that are not given here.

As a reminder, the LogP is the decadic logarithm of the partition coefficient of the neutral form, usually between octanol and water. Take `N#Cc1cc(I)ccc1OC1(C2(c3ccc(F)cc3F)CO2)CC1` (stereo not drawn) [Example V-13]: the lipophilicity (LogP) under setting [1] worked out at 4.14 and the log partition coefficient (LogP) under setting [2] was 4.21.

Consider `Cc1cc(Br)ccc1OC1(C2(c3ccc(F)cc3F)CO2)CC1` (stereo not drawn) [Example V-14], for which the LogP is, setting by setting: under setting [1], 5.25^[a]; 5.25^[b]; under setting [2], 5.25^[a]; 5.25^[b]. For the compound `Fc1ccc(C2(C3(Oc4ccc(OC(F)(F)F)cc4)CC3)CO2)c(F)c1` (stereo not drawn) [Example V-15], the LogP is, setting by setting: under setting [1], 4.70; under setting [2], 4.86. Consider `Fc1ccc(C2(C3(Oc4ccc(SC(F)(F)F)cc4)CC3)CO2)c(F)c1` (stereo not drawn) [Example V-16], for which the LogP turned out to be 5.23 under setting [1] and 5.24 under setting [2]. Consider `Fc1ccc(OC2(C3(c4ccc(Cl)cc4F)CO3)CC2)c(F)c1` (stereo not drawn) [Example V-17], for which, under setting [1], the LogP was 4.56^[a]. Still for that read-out and setting: next, `Fc1ccc(C2(C3(Oc4c(F)cccc4F)CC3)CO2)c(F)c1` (stereo not drawn) [Example V-18]: 4.11^[a]; `Fc1ccc(C2(C3(Oc4c(Cl)cccc4Cl)CC3)CO2)c(F)c1` (stereo not drawn) [Example V-19]: 4.80^[a]; `Fc1ccc(C2(C3(Oc4c(F)cccc4Cl)CC3)CO2)c(F)c1` (stereo not drawn) [Example V-20]: 4.49^[a]. On the same count and under the same terms, to `Fc1ccc(C2(C3(Oc4c(F)cccc4Br)CC3)CO2)c(F)c1` (stereo not drawn) [Example V-21] belongs 4.59^[a]. Broadly, the chromatographic logP is a lipophilicity value derived from retention on a column. The low end stands for lower lipophilicity, the high end for higher lipophilicity. In turn, `O=C(c1ccc(F)cc1F)C1(Oc2ccc(Br)cc2)CC1` [IV-1, [1-(4-bromophenoxy)cyclopropyl](2,4-difluorophenyl)methanone] came in with a chromatographic logP (reversed phase HPLC column, [a] LC-UV, acidic range, 0.1% formic acid in water and acetonitrile as eluent) of 4.32. For `O=C(c1ccc(F)cc1F)C1(Oc2ccc(Cl)cc2)CC1` [IV-2], the LogP under setting [1] was 4.22^[a]. Regarding `O=C(c1ccc(F)cc1F)C1(Oc2ccc(Cl)cc2F)CC1` [IV-3], the LogP by setting is: under setting [1], 4.23; under setting [2], 4.24. For `O=C(c1ccc(F)cc1F)C1(Oc2ccc(F)cc2Cl)CC1` [IV-4], the LogP by setting is: under setting [1], 4.21^[a]; 4.21^[b]; under setting [2], 4.21^[a]; 4.21^[b]. In the case of `O=C(c1ccc(F)cc1F)C1(Oc2ccccc2F)CC1` [IV-5], the LogP under setting [1] is 3.73^[a]. Turning to `O=C(c1ccc(F)cc1F)C1(Oc2ccccc2Br)CC1` [IV-6], the LogP was 4.14 under setting [1] and 4.19 under setting [2]. In the same order, the values of `O=C(c1ccc(F)cc1F)C1(Oc2cccc(Br)c2)CC1` [IV-7] are 4.32 and 4.36. `O=C(c1ccc(F)cc1F)C1(Oc2ccccc2I)CC1` [IV-8]: the LogP is reported as 4.35 under setting [1] and 4.40 under setting [2]. For the compound `O=C(c1ccc(F)cc1F)C1(Oc2cccc(I)c2)CC1` [IV-9], the LogP runs as follows: under setting [1], 4.50; under setting [2], 4.53. In the same order, the values of `O=C(c1ccc(F)cc1F)C1(Oc2ccc(I)cc2)CC1` [IV-10] are 4.54 and 4.57.

Consider `O=C(c1ccc(F)cc1F)C1(Oc2ccc(Br)cc2F)CC1` [IV-11], for which the LogP worked out at 4.33 under setting [1] and 4.36 under setting [2].

On to `Cc1cc(I)ccc1OC1(C(=O)c2ccc(F)cc2F)CC1` [IV-12], for which the LogP worked out at 5.06 under setting [1] and 5.08 under setting [2].

For the compound `N#Cc1cc(I)ccc1OC1(C(=O)c2ccc(F)cc2F)CC1` [IV-13], the LogP is listed as 3.90 under setting [1] and 3.92 under setting [2]. As for `Cc1cc(Br)ccc1OC1(C(=O)c2ccc(F)cc2F)CC1` [IV-14], the LogP reads like this: under setting [1], 4.88; under setting [2], 4.87.

Regarding `O=C(c1ccc(F)cc1F)C1(Oc2ccc(OC(F)(F)F)cc2)CC1` [IV-15], the LogP under setting [1] was 4.49 and the LogP under setting [2] is recorded as 4.53. In the same order, the values of `O=C(c1ccc(F)cc1F)C1(Oc2ccc(SC(F)(F)F)cc2)CC1` [IV-16] are 4.86 and 4.92.

Consider `O=C(c1ccc(F)cc1F)C1(Oc2c(F)cccc2F)CC1` [IV-17], for which the log partition coefficient (LogP) under setting [1] was 3.87^[a]. Regarding `O=C(c1ccc(F)cc1F)C1(Oc2c(Cl)cccc2Cl)CC1` [IV-18], the LogP under setting [1] was 4.59^[a].

Turning to `O=C(c1ccc(F)cc1F)C1(Oc2c(F)cccc2Cl)CC1` [IV-19], the LogP under setting [1] is 4.26^[a].
